System: MMP-1
Assay: MMP-1 expression level by MMP-1 ELISA kit, UV-stimulated HaCaT cell culture and human fibroblast culture
Type: cell-based
Details: for MMP-1 production: Control = 100, UV = 260.4; for effect of inhibiting MMP-1 as compared to catechin or epicatechin: Table 1 and FIG. 3
Experimental: Then, after replacing the medium with an FBS-free DMEM medium to starve the cells, they were treated with UV on the next day.
Then, the cells were starved by replacing the medium with an FBM medium with no supplement. Then, the UV-stimulated HaCaT cell culture and the human fibroblast culture were treated with a total of 6 samples prepared by dissolving the (2R,3S)-heptahydroxyflavan and (2R,3R)-heptahydroxyflavan obtained in Example 1 in 5% DMSO to concentrations of 5 μg/mL (=about 15.5 μM), 10 μg/mL (=about 31.0 μM) and 20 μg/mL (=about 62.1 μM), respectively. As comparative examples, the cultures were treated with a total of 6 samples prepared by dissolving catechin and epicatechin in 5% DMSO at concentrations of 25 μM, 50 μM and 100 μM, respectively.
After the treatment with the samples, the expression level of MMP-1 was measured using the MMP-1 ELISA kit (R&D Systems). Separately from this, positive control groups were treated with 10 μM EGCG or 10 μM retinoic acid instead of heptahydroxyflavan in the same manner as described above.

Compound | MMP-1 production (5 μg/mL) | MMP-1 production (10 μg/mL) | MMP-1 production (20 μg/mL) | effect of inhibiting MMP-1 as compared to catechin or epicatechin | MMP-1 production (10 μM) | MMP-1 production (25 μM) | MMP-1 production (50 μM) | MMP-1 production (100 μM)
Oc1ccc([C@H]2Oc3c(O)c(O)c(O)c(O)c3C[C@H]2O)cc1O [APNP-055] | 281.0 | 286.6 | 160.6 | remarkably superior effect of inhibiting MMP-1 |  |  |  | 
O=C(O[C@@H]1Cc2c(O)cc(O)cc2O[C@@H]1c1cc(O)c(O)c(O)c1)c1cc(O)c(O)c(O)c1 [EGCG] |  |  |  |  | 115.4 |  |  | 
catechin |  |  |  |  |  | 308.2 | 287.4 | 257.3
CC1=C(/C=C/C(C)=C/C=C/C(C)=C/C(=O)O)C(C)(C)CCC1 [RA, retinoic acid] |  |  |  |  | 104.5 |  |  | 
Oc1cc(O)c2c(c1)O[C@H](c1ccc(O)c(O)c1)[C@H](O)C2 [Epicatechin, epicatechin] |  |  |  |  |  | 294.8 | 289.1 | 196.2
Oc1ccc([C@H]2Oc3c(O)c(O)c(O)c(O)c3C[C@@H]2O)cc1O [APNP-054] | 282.1 | 267.7 | 183.2 | remarkably superior effect of inhibiting MMP-1 |  |  |  | 

Source: patent US11554091B2, “Composition for enhancing skin elasticity or improving skin wrinkles comprising heptahydroxyflavan as an effective ingredient” (AMOREPACIFIC CORPORATION, priority 2019, dated 2023)
